Assay results as given in PMC8552062, “Contributions of UDP-Glucuronosyltransferases to Human Hepatic and Intestinal Metabolism of Ticagrelor and Inhibition of UGTs and Cytochrome P450 Enzymes by Ticagrelor and its Glucuronidated Metabolite” (Frontiers in Pharmacology, 2021).

Tests used:
Format in all cases: in vitro ADME
Design in all cases: tissue XenoTech LLC; host or cells: pooled human liver microsomes
UGT1A1 = molecular target: T1, UGT1A1 (Homo sapiens, UniProt P22309); experiment: UGT1A1 inhibition in HLM (SN-38 glucuronidation); settings: for IC50: UGT1A1, SN-38 glucuronide formation in HLM
T1 sequence (P22309 26-533): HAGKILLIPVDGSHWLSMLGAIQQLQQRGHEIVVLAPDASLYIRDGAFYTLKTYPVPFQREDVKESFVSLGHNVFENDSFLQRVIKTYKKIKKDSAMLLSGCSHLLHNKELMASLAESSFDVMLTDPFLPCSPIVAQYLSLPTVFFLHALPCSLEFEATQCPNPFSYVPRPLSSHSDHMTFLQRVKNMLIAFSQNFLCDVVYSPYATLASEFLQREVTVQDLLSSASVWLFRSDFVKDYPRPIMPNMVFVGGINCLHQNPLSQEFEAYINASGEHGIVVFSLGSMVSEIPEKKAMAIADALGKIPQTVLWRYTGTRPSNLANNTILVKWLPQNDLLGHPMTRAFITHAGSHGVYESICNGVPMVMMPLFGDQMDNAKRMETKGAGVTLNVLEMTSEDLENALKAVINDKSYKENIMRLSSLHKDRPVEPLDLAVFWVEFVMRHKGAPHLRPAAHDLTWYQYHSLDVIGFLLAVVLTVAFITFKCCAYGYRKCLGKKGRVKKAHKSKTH
Description: (§1) To assess drug-drug interactions (DDIs) potential caused by ticagrelor and ticagrelor-O-Glu through the inhibition of the major human UGTs enzymes, selective UGT probe substrates were co-incubated with ticagrelor or ticagrelor-O-Glu in HLM. The formation of metabolites, SN-38 glucuronide, chenodeoxycholic acid 24-acyl-β-D-glucuronide, trifluoperazine N-glucuronide, N-Acetyl serotonin glucuronide, mycophenolic acid glucuronide and 3′-azide-3′-deoxythymidine β-D-glucuronide, which could reflect the enzyme activities of UGT1A1, UGT1A3, UGT1A4, UGT1A6, UGT1A9 and UGT2B7, respectively, were quantified using LC-MS/MS. Three different concentrations of ticagrelor or ticagrelor-O-Glu (1, 10 and 100 μM) were added to the incubation system in the presence of selective UGT probe substrates (SN-38, chenodeoxycholic acid, trifluoperazine, N-Acetyl serotonin, mycophenolic acid and 3′-azide-3′-deoxythymidine), respectively. The assays were performed as described above. The control was treated with a vehicle solvent only. A triple determination was performed.
(§2) The percent inhibition relative to the control was calculated to indicate the UGTs or CYPs inhibition. For inhibition exceeding 50% of the control activity, nonlinear regression analysis was used to estimate the IC50 values using the GraphPad Prism 6 (GraphPad Software Inc., CA, United States).

UGT1A6 = molecular target: T2, UGT1A6 (Homo sapiens, UniProt P19224); experiment: UGT1A6 inhibition in HLM (N-Acetyl serotonin glucuronidation); settings: for IC50: UGT1A6, N-Acetyl serotonin glucuronide formation in HLM; for inhibition at 100 µM: human, human liver microsomes (HLM), probe N-Acetyl serotonin, HLM, 100 μM test compound
T2 sequence (P19224 27-532): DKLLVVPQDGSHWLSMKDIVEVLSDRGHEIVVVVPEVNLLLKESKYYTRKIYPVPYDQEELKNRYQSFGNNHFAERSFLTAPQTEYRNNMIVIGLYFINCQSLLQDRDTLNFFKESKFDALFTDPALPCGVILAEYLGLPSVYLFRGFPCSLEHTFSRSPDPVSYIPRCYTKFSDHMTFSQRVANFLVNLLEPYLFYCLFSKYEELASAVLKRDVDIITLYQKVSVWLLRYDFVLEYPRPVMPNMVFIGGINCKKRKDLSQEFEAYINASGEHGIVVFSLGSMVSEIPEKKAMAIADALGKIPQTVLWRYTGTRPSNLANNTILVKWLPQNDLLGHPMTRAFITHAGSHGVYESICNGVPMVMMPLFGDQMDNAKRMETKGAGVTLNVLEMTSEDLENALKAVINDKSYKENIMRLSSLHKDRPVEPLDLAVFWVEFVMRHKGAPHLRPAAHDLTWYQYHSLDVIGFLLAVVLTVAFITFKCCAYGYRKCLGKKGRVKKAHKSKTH
Description: as §1, §2

UGT2B7 = molecular target: T3, UGT2B7 (Homo sapiens, UniProt P16662); experiment: UGT2B7 inhibition in HLM (3′-azide-3′-deoxythymidine glucuronidation); settings: for IC50: UGT2B7, 3′-azide-3′-deoxythymidine β-D-glucuronide formation in HLM; for inhibition at 100 µM: human, human liver microsomes (HLM), probe 3′-azide-3′-deoxythymidine, HLM, 100 μM test compound
T3 sequence (P16662 24-529): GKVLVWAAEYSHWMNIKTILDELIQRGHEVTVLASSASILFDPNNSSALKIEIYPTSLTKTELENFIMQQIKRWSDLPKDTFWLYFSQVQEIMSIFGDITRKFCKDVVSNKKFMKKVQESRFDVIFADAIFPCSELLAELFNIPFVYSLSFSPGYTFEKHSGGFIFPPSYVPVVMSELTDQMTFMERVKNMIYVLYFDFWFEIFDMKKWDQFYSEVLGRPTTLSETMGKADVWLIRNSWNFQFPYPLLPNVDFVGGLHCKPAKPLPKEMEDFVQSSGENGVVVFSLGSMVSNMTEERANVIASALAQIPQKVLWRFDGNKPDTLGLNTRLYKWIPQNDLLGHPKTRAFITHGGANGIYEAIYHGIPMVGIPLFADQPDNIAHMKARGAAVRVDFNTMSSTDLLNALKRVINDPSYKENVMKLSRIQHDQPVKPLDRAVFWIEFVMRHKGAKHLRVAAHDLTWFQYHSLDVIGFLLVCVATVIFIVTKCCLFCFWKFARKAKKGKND
Description: as §1, §2

UGT1A3 = molecular target: T4, UGT1A3 (Homo sapiens, UniProt P35503); experiment: UGT1A3 inhibition in HLM (chenodeoxycholic acid glucuronidation); settings: for IC50: UGT1A3, chenodeoxycholic acid 24-acyl-β-D-glucuronide formation in HLM
T4 sequence (P35503 29-534): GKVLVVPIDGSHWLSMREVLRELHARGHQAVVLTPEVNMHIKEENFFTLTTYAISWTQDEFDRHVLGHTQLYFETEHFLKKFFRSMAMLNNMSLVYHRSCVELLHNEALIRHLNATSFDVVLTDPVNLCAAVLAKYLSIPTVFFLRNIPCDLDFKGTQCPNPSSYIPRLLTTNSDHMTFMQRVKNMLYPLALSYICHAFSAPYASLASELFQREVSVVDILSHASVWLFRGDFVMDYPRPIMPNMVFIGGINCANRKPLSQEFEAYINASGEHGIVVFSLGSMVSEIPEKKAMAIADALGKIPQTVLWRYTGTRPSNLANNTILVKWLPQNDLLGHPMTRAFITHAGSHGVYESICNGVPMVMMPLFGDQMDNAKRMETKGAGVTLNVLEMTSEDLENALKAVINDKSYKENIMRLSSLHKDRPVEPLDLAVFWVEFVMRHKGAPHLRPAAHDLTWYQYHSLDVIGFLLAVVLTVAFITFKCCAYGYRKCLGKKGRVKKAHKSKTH
Description: as §1, §2

[1] = HLM, concentration up to 100 μM

Row | inhibitory effect on UGT1A1 (UGT1A1; [1]) | IC50 (UGT1A1) | IC50 (UGT1A6) | inhibition at 100 µM (UGT1A6) | IC50 (UGT2B7) | inhibition at 100 µM (UGT2B7) | inhibitory effect on UGT1A3 (UGT1A3; [1]) | IC50 (UGT1A3) | inhibition at 100 µM (UGT1A1; human, human liver microsomes (HLM), probe SN-38, HLM, 100 μM test compound) | inhibition at 100 µM (UGT1A3; human, human liver microsomes (HLM), probe chenodeoxycholic acid, HLM, 100 μM test compound) | Structure (SMILES)
1 | no significant inhibitory effects | > 100 µM | > 100 µM | 28.5% | > 100 µM | 30.7% | no significant inhibitory effects | > 100 µM |  |  | CCCSc1nc(N[C@@H]2C[C@H]2c2ccc(F)c(F)c2)c2nnn([C@@H]3C[C@H](OCCO[C@@H]4O[C@H](C(=O)O)[C@@H](O)[C@H](O)[C@H]4O)[C@@H](O)[C@H]3O)c2n1 [Ticagrelor-O-Glu, ticagrelor-O-glucuronide]
2 |  | ~100 µM | > 100 µM | 12.7% | > 100 µM | 39% |  | > 100 µM | 56.8% | 24.5% | CCCSc1nc(N[C@@H]2C[C@H]2c2ccc(F)c(F)c2)c2nnn([C@@H]3C[C@H](OCCO)[C@@H](O)[C@H]3O)c2n1 [Ticagrelor]
